We go through ten molecules from ChEMBL document CHEMBL4350985, “1,3-Dioxane as a scaffold for potent and selective 5-HT1AR agonist with in-vivo anxiolytic, anti-depressant and anti-nociceptive activity” (Eur J Med Chem, 2019).

Activity calls are given as the source filed them. No cut-off for these calls is given here.

In series [1] the target is T1, Alpha-1A adrenergic receptor (Homo sapiens, UniProt P35348).
T1 sequence (P35348 whole entry): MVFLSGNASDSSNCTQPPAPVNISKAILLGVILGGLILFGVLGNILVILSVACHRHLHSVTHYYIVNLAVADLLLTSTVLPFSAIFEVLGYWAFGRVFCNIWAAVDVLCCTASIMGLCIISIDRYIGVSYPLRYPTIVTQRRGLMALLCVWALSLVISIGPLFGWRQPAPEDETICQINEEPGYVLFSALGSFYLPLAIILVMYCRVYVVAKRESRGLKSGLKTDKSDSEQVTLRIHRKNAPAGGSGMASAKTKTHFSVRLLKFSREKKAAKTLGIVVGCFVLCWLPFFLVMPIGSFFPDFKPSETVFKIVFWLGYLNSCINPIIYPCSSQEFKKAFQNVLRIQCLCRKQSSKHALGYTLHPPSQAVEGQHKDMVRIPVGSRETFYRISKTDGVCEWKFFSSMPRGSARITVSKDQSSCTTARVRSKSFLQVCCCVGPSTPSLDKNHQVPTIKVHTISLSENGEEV
The experiment in a line: biochemical.
Description: Displacement of [3H] prazosin from human cloned adrenoceptor alpha 1A expressed in CHO cell membrane incubated for 30 mins by liquid scintillation counting

Series [2] concerns the target T2, Alpha-1B adrenergic receptor (Rattus norvegicus) (UniProt P15823).
T2 sequence (whole entry): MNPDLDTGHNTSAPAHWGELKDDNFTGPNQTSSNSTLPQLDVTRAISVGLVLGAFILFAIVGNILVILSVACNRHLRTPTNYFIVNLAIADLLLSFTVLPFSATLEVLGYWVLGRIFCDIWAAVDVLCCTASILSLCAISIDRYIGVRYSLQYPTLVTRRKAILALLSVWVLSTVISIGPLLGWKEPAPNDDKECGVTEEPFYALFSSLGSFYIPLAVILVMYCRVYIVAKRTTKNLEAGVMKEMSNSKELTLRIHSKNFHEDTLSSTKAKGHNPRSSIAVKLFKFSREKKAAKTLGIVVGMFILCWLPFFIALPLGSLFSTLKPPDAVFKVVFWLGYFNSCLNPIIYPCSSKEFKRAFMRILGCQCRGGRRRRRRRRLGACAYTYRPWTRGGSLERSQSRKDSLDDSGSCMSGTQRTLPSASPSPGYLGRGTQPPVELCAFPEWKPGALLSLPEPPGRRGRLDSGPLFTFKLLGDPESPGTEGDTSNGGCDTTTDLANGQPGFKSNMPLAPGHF
In words: Antagonist activity at alpha-1b adrenergic receptor in Wistar rat spleen assessed as inhibition of (-)-phenylephrine-induced contraction. It is filed as tissue-based.

For series [3], the target named is T3, Alpha-1D adrenergic receptor (Rattus norvegicus) (UniProt P23944).
T3 sequence (whole entry): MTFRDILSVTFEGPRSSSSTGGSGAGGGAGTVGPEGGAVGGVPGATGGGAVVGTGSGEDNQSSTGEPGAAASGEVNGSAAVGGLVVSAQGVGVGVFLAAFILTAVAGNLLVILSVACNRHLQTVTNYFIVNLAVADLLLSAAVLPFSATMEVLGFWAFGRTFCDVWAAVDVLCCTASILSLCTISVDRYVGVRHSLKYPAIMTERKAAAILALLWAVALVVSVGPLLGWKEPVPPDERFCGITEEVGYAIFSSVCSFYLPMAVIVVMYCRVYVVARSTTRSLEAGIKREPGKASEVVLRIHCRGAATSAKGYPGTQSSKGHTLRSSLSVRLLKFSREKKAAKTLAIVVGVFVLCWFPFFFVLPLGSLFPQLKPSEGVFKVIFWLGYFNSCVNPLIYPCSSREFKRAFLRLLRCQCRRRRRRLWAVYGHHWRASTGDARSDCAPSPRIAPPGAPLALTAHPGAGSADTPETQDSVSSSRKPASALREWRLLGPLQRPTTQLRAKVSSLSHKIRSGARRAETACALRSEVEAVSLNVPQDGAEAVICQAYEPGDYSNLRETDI
In words: Antagonist activity at alpha-1d adrenergic receptor in Wistar rat thoracic aorta assessed as inhibition of (-)-noradrenaline-induced contractions.

Series [4] has as its target T4, Alpha-1D adrenergic receptor (Homo sapiens, UniProt P25100).
T4 sequence (P25100 whole entry): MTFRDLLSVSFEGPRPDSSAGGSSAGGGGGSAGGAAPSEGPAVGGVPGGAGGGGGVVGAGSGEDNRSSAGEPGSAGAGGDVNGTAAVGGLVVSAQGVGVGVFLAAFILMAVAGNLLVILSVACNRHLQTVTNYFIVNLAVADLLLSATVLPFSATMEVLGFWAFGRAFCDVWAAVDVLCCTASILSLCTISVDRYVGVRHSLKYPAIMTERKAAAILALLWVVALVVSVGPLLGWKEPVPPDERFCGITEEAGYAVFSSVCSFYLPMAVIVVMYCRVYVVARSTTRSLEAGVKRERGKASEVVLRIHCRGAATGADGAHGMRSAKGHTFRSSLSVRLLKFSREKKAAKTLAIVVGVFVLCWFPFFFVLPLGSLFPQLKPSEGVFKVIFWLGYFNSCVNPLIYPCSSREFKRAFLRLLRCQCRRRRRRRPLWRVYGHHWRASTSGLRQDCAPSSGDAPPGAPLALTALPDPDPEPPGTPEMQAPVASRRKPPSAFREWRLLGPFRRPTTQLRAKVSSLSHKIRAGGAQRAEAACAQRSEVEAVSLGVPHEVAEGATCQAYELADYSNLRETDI
In words: biochemical.
Description: Displacement of [3H] prazosin from human cloned adrenoceptor alpha 1D expressed in CHO cell membrane incubated for 30 mins by liquid scintillation counter

Series [5] addresses T5, Alpha-1B adrenergic receptor (Homo sapiens, UniProt P35368).
T5 sequence (P35368 whole entry): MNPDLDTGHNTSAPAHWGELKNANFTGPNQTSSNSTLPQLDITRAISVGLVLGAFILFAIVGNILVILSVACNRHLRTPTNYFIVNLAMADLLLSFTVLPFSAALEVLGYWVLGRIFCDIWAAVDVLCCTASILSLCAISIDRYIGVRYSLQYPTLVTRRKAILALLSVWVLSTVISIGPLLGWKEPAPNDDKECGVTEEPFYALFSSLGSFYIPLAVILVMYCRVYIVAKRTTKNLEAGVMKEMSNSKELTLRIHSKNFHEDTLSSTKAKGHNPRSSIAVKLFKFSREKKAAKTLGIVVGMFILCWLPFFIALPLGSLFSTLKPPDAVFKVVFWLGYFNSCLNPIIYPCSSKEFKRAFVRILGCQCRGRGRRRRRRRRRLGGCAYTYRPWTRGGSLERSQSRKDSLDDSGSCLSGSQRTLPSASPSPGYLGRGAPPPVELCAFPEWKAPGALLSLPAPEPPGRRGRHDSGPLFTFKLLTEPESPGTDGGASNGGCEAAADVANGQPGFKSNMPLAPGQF
The experiment in a line: Displacement of [3H] prazosin from human cloned adrenoceptor alpha 1B expressed in CHO cell membrane incubated for 30 mins by liquid scintillation counter.

In series [6] the target is T6, 5-hydroxytryptamine receptor 1A (Homo sapiens, UniProt P08908).
T6 sequence (P08908 whole entry): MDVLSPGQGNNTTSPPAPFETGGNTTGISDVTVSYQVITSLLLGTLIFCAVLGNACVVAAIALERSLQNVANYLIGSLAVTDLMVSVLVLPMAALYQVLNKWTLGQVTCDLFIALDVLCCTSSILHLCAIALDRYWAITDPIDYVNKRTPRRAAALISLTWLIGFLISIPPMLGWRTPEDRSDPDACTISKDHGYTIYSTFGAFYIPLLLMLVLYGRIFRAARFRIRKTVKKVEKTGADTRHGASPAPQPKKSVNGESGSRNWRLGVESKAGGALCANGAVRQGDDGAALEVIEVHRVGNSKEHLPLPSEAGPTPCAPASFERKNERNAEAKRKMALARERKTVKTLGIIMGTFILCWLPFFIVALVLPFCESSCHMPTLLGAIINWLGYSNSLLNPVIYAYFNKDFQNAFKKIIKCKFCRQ
In words: Displacement of [3H]8-OH-DPAT from human cloned 5HT-1AR transfected in HeLa cells incubated for 30 mins by liquid scintillation counter. The format is cell-based.

Series [7] addresses T7, Alpha-1A adrenergic receptor (Rattus norvegicus) (UniProt P43140).
T7 sequence (whole entry): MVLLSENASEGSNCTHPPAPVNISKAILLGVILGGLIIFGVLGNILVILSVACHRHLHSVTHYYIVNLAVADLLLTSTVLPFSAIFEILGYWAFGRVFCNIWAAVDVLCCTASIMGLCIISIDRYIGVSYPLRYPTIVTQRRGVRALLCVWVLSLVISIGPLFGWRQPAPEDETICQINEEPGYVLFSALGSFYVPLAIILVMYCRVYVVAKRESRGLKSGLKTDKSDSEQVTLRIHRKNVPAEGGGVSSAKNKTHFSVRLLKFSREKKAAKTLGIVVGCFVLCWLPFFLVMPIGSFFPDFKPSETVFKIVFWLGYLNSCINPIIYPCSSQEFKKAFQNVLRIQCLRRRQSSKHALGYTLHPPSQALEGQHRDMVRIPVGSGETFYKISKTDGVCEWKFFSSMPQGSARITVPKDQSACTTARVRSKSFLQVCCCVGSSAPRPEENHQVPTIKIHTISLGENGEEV
The experiment in a line: Antagonist activity at alpha-1a adrenergic receptor in Wistar rat prostatic vas deferens assessed as inhibition of (-)-noradrenaline-induced contraction.

Series [8] is described as follows: Half life in Sprague-Dawley rat plasma at 10 mg/kg, po measured upto 480 mins by LC/MS-MS analysis. It is filed as ADME, organism-based.
In series [9] the test system is Rattus norvegicus. The experiment in a line: Antidepressant activity in Sprague-Dawley rat assessed as increase in time spent in swimming at 0.5 mg/kg, ip by forced swim test. The format is functional, organism-based.
Series [10] has as its system Rattus norvegicus. The experiment in a line: Anxiolytic activity at Sprague-Dawley rat assessed as increase in time spent in open arm at 0.5 mg/kg, ip by EPM test relative to control. It is filed as functional.
The test system of series [11] is Rattus norvegicus. In words: Antidepressant activity in Sprague-Dawley rat assessed as time spent on climbing at 0.5 mg/kg, ip by forced swim test. The format is functional, organism-based.
For series [12], the system named is Rattus norvegicus. The experiment in a line: Anxiolytic activity at Sprague-Dawley rat assessed as number of open arm entries at 0.5 mg/kg, ip by EPM test. It is filed as functional, organism-based.
Series [13] concerns Rattus norvegicus. In words: Effect on locomotory activity in Sprague-Dawley rat assessed as distance travelled at 0.5 mg/kg, ip by open field test. It is filed as functional, organism-based.
Series [14] relates to Rattus norvegicus. The experiment in a line: Antidepressant activity in Sprague-Dawley rat assessed as decrease in time of immobilization at 0.5 mg/kg, ip by forced swim test. The format is functional, organism-based.
Series [15] is filed under the species Rattus norvegicus. In words: Selectivity for antagonist activity at Wistar rat thoracic aorta alpha 1D adrenoceptor over antagonist activity at Wistar rat prostate vas deferens alpha 1A adrenoceptor.
The target in series [16] is T8, 5-hydroxytryptamine receptor 1A (Homo sapiens) (UniProt P08908).
T8 sequence (whole entry): T6 sequence (P08908 whole entry)
The following applies: HeLa.
Description: Agonist activity at human recombinant 5HT1A receptor expressed in human HeLa cells assessed as increase in [35S]GTPgammaS binding incubated for 20 mins by liquid scintillation counter

Series [17] is filed under the species Rattus norvegicus. In words: Selectivity for antagonist activity at Wistar rat thoracic aorta alpha 1D adrenoceptor over antagonist activity at Wistar rat spleen alpha 1B adrenoceptor.

On to `COc1ccccc1OCCNC[C@@H]1CO[C@H](C(c2ccccc2)c2ccccc2)O1` (relative stereo), for which the Ki in [1] is 977 nM; in series [4], 4.37 nM; in series [5] it was 37.2 nM; in series [6] it was 3.16 nM. Moreover, the results for the negative-log Kb (pKb) in [2], in series [3] and in series [7] were 6.75, 7.52 and 6.16, respectively.
As to `c1ccc(OCCNCCC2COC(c3ccccc3)(c3ccccc3)O2)cc1` (stereo unspecified), the Ki in series [1] is 58.9 nM; in series [4], 30.2 nM; in series [5], 95.5 nM; in series [6], 724 nM. Besides, the pKb in series [2] was determined as 6.49; in series [3], 7.04; in [7] it was 6.34.
For `c1ccc(OCCNC[C@H]2CO[C@H](C(c3ccccc3)c3ccccc3)O2)cc1` (relative stereo), the Ki was 120 nM in series [1], 87.1 nM in [4], 102 nM in series [5] and 5.25 nM in [6]. The pKb in series [2] was found to be 6.26; in series [3], 6.7; in series [7], 6.29.
As to `Br.CCCN(CCC)C1CCc2cccc(O)c2C1` (stereo unspecified), the half-life in series [8] was determined as 27 min. For the same molecule, the outcome in the series on Rattus norvegicus [9] was Active. In addition, the Activity with Rattus norvegicus [10] was determined as 19%. The outcome in the series on Rattus norvegicus [11], in the series with Rattus norvegicus [12] and in the series with Rattus norvegicus [13] was inactive. For the same molecule, the inhibition entry in the series with Rattus norvegicus [14] is “Active”.
With `c1ccc(OCCNCC2COC(c3ccccc3)(c3ccccc3)O2)cc1` (stereo unspecified), the results for the pKb in series [2], in series [3] and in series [7] were 5.86, 8.37 and 6.16, respectively. In addition, the Ratio pKb in the series listed under Rattus norvegicus [15] and in the series listed under Rattus norvegicus [17] was more than 100 in each case. The pD2 in series [16] was determined as 8.8.
In the case of `c1ccc(OCCNCC[C@H]2CO[C@H](C(c3ccccc3)c3ccccc3)O2)cc1` (relative stereo), the Ki in series [1] was 89.1 nM; in series [4], 95.5 nM; in series [5], 166 nM; in series [6], 57.5 nM. Besides, the pKb is 6.66 in [2], 7.22 in series [3] and 5.71 in [7].
`COc1ccccc1OCCNCC1COC(c2ccccc2)(c2ccccc2)O1` (stereo unspecified): the pKb is 7.36 in series [2], 8.65 in series [3] and 7.53 in series [7]. This molecule displayed a pD2 in [16] of 7.36.
With `c1ccc(OCCNC[C@@H]2CO[C@H](C(c3ccccc3)c3ccccc3)O2)cc1` (relative stereo), the Ki was 427 nM in series [1], 29.5 nM in series [4], 102 nM in series [5] and 11.5 nM in [6]. Also, the negative-log Kb (pKb) in [2] is 6.83; in series [3] it was 6.72; in series [7] it was 6.22.
Regarding `c1ccc(OCCNCC[C@@H]2CO[C@H](C(c3ccccc3)c3ccccc3)O2)cc1` (relative stereo), the Ki in series [1] is 170 nM; in series [4], 75.9 nM; in series [5] it was 107 nM; in [6] it was 60.3 nM. Further, the pKb in series [2] worked out at 6.43; in series [3], 7.15; in [7] it was 6.14.
As for `COc1ccccc1OCCNC[C@H]1CO[C@H](C(c2ccccc2)c2ccccc2)O1` (relative stereo), the Ki is 30.9 nM in series [1], 7.08 nM in [4], 27.5 nM in series [5] and 2 nM in series [6]. The pKb is 6.82 in [2], 7.64 in series [3] and 6.78 in series [7].
